We go through one molecule from BindingDB's records for doi:10.1016/j.bmc.2019.01.035 (Florida A&M University, 2019).

The target in this assay is Sigma non-opioid intracellular receptor 1 (Homo sapiens, UniProt Q99720). Description: Displacement [3H]-Pentazocine from sigma 1 receptor (unknown origin) expressed in HEK cell membranes.
Chain of Sigma non-opioid intracellular receptor 1 (Q99720 whole entry): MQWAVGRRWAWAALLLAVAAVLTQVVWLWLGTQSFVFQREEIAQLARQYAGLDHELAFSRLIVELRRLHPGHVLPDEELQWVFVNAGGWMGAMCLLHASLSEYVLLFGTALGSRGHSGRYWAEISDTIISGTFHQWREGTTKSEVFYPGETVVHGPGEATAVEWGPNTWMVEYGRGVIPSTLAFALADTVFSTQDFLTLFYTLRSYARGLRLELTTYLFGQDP

Molecule `O=C(CCCN1CCCN(c2ccccn2)CC1)c1ccc(F)cc1` gave a Ki of 63 nM.

For orientation: Ki means a measure of affinity in units of concentration, obtained from inhibition or displacement. Lower therefore signals higher affinity.
